Experimental findings from patent US20250163122A1, “COMPOSITIONS AND METHODS FOR TREATING AIRWAY MUCUS DYSFUNCTION” (BOARD OF REGENTS, THE UNIVERSITY OF TEXAS SYSTEM, priority 2022, published 2025) are described below.

Data set [1] concerns neuronal SNAREs and Syt1. Briefly: Ensemble lipid mixing assay, neuronal PM and SV vesicles. The conditions noted are these: for effect on ensemble lipid mixing: with or without Ca2+, peptide concentration-dependent. It is filed as biochemical. The source says:
Vesicle reconstitution. For the ensemble lipid mixing assay, the lipid composition of the SV vesicles was phosphatidylcholine (PC) (46%), phosphatidylethanolamine (PE) (20%), phosphatidylserine (PS) (12%), cholesterol (20%), and 1,1′-dioctadecyl-3,3,3′,3′-tetramethylindodicarbocyanine perchlorate (DiD) (Invitrogen) (2%); for the both neuronal and airway PM vesicles the lipid composition was Brain Total Lipid Extract supplemented 3.5 mol % PIP2, 0.1 mol % biotinylated phosphatidylethanolamine (PE) and 1,1′-dioctadecyl-3,3,3′,3′-tetramethylindocarbocyanine perchlorate (DiI) (Invitrogen). All the lipids are from Avanti Polar Lipids.
(§1) A 3-5 fold excess of SNAP-25A or SNAP-23 (with respect to Stx1A or Stx3) and 3.5 mol % PIP2 were added to the protein-lipid mixture for neuronal or airway PM vesicles. […] For the preparation of SV, SG, VAMP2, or VAMP8 vesicles for single vesicle content mixing assay, 50 mM sulforhodamine B (Thermo Fisher Scientific) was added to the protein-lipid mixture. The vesicles subsequently formed during size exclusion chromatography using a Sepharose CL-4B column, packed under near constant pressure by gravity with a peristaltic pump (GE Healthcare) in a 5.5 ml column with a ˜5 ml bed volume that was equilibrated with buffer V (20 mM HEPES, pH 7.4, 90 mM NaCl) supplemented with 20 μM EGTA and 0.1% 2-mercaptoethanol. The eluent was subjected to dialysis into 21 of detergent-free buffer V supplemented with 20 μM EGTA, 0.1% 2-mercaptoethanol, 5 g of Bio-beads SM2 (Bio-Rad) and 0.8 g/L Chelex 100 resin (Bio-Rad). After 4 hours, the buffer was exchanged with 21 of fresh buffer V supplemented with 20 μM EGTA, 0.1% 2-mercaptoethanol and Bio-beads, and the dialysis continued for another 12 h (overnight). […] For ensemble lipid mixing assay, the reconstitution method is the same as that for the single vesicle content mixing assay, except that 50 mM sulforhodamine B was omitted for all the steps.
Bulk lipid mixing experiments with neuronal synaptic proteins. Protein-reconstituted neuronal PM and SV vesicles were mixed at a molar ratio of 1:1, both at 0.1 mM lipid concentration. Lipid mixing is measured by monitoring the fluorescent emission (670 nm) of the DiD dyes in the SV vesicles by FRET using 530 nm laser light excitation of the DiI dyes in neuronal PM vesicles. The fluorescence intensity was monitored in two channels at 570 nm and 670 nm, respectively. Fluorescence changes were recorded with a Varian Cary Eclipse model fluorescence spectrophotometer using a quartz cell of 100 μl with a 5 mm path length. All measurements were performed at 35° C.

The test system of data set [2] is neuronal SNAREs and Syt1. Briefly: Single vesicle content mixing assay, neuronal SNAREs and Syt1. The format is biochemical. The conditions noted are these: 10 μM peptide, raw count; for Ca2+ triggered fusion events: 500 μM Ca2+.
From the text: (§2) For single vesicle content mixing assay, the lipid composition of the SV, SG, VAMP2, or VAMP8 vesicles was phosphatidylcholine (PC) (48%), phosphatidylethanolamine (PE) (20%), phosphatidylserine (PS) (12%), and cholesterol (20%); for both the neuronal and airway PM vesicles the lipid composition was Brain Total Lipid Extract supplemented 3.5 mol % PIP2, and 0.1 mol % biotinylated phosphatidylethanolamine (PE).
(§3) The reconstitution method for neuronal PM and SV vesicles was described in detail previously (see Lai et al., 2017; Kyoung et al., 2011; and Lai et al., 2014). The same methods were used for airway PM, SG, VAMP2, and VAMP8 vesicles. Dried lipid films were dissolved in 110 mM OG buffer containing purified proteins at protein-to-lipid ratios of 1:200 for VAMP2 and Stx1A for SV and neuronal PM vesicles, respectively (or 1:200 for VAMP8 and Stx3 for SG and airway PM vesicles, respectively), and 1:800 for Syt1 for SV vesicles (or 1:1200 for Syt2 for SG vesicles).
as §1
(§4) Single vesicle content mixing experiments. All single vesicle fusion and single molecule experiments were performed on a prism-type total internal reflection fluorescence (TIRF) microscope using 532 nm (green) laser (CrystaLaser) excitation. Two observation channels were created by a 640 nm single-edge dichroic beamsplitter (FF640-FDi01-25x36, Shemrock): one channel was used for the fluorescence emission intensity of the content dyes and the other channel for that of the Cy5 dye that are part of the injected Ca^2+-solution. The two channels were recorded on two adjacent rectangular areas (45×90 m^2) of a charge-coupled device (CCD) camera (iXon+DV 897E, Andor Technology). The imaging data were recorded with the smCamera software developed by Taekjip Ha, Johns Hopkins University, Baltimore.
(§5) Flow chambers were assembled by creating a “sandwich” consisting of a quartz slide and a glass coverslip that were both coated with polyethylene glycol (PEG) molecules consisting 0.1% (w/v) biotinylated-PEG except when stated otherwise, and using double-sided tape to create up to five flow-chambers.
(§6) The single vesicle content mixing assay described in Lai et al. (2014) was used to monitor vesicle-vesicle association, Ca^2+-independent, and Ca^2+-triggered fusion. The surface of the quartz slides was passivated by coating the surface with polyethylene glycol (PEG) molecules which alleviated non-specific binding of vesicles. The same protocol and quality controls (surface coverage and non-specific binding) were used as described previously (Kyoung et al., 2011; Kyoung et al., 2012) except that PEG-SVA (Laysan Bio) instead of mPEG-SCM (Laysan Bio) was used since it has a longer half-life. […]

The nature of data set [3]: CD spectroscopy, α-helical content of peptides. The format is physicochemical. Particulars: for helical content, ranking in words: among the peptides tested. On the procedure:
CD spectroscopy. CD spectra were measured with an AVIV stop-flow CD spectropolarimeter at 190 to 250 nm using a cell with a 1 mm path-length. The sample containing […] of synthesized peptides in PBS buffer (137 mM NaCl, 2.7 mM KCl, 10 mM Na2HPO4, and 2 mM KH2PO4, pH 7.4) was measured at 20° C. For the correction of the baseline error, the signal from a blank run with PBS buffer was subtracted from all the experimental spectra. The α-helical content of each peptide was calculated by dividing the mean residue ellipticity [φ]222obs by the reported [φ]222obs for a model helical decapeptide (Yang et al., 1986).

A further data set has as its target airway SNAREs and Syt2 (Rattus norvegicus, UniProt P29101). Briefly: Single vesicle content mixing assay, airway SNAREs and Syt2 (airway PM and SG vesicles). The format is biochemical. The conditions noted are these: for Ca2+ triggered fusion events / Ca2+ independent fusion events: 10 μM peptide, raw count; for Ca2+ triggered fusion events: 500 μM Ca2+.
From the text: as §2, §3, §1, §4, §5, §6

“Also recorded” adds a separate entry of the source. Where a SMILES comes first, the peptide text is derived from it. Bridges are numbered along the chain shown (N, C = ends). [ ]: non-standard residue; d: D form. S5 = C=CCCC[C@](C)(N)C(=O)O

Chain of airway SNAREs and Syt2 (P29101 whole entry, the tested form may be a part): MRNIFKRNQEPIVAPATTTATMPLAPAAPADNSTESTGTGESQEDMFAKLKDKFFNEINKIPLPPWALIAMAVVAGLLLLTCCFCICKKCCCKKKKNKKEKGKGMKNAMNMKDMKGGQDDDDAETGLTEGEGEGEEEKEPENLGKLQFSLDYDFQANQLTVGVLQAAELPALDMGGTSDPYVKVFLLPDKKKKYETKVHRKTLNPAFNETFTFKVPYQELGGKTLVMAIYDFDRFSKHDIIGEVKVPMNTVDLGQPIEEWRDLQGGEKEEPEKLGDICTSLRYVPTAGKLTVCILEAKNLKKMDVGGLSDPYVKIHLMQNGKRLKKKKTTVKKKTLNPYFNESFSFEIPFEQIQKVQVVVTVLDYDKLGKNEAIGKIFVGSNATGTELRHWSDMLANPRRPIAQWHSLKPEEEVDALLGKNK

As for “EESKDAGIRTLVMLDEQGEQLD [Peptide P0, non-stapled SNAP-25A fragment used as a control, reference compound]”, the “effect on Ca2+-triggered ensemble lipid mixing” value in the data set with neuronal SNAREs and Syt1 [1] was “little effect”. For the same molecule, the “effect on Ca2+-independent ensemble lipid mixing” value in the data set on neuronal SNAREs and Syt1 [1] (10 μM and 100 μM peptide) was “little effect”. In addition, in the data set with neuronal SNAREs and Syt1 [2], the “Ca2+ triggered fusion events” value was 591 and the “Ca2+ independent fusion events” value was found to be 493. The “helicity / helical content” value in data set [3] (in solution, CD [φ]222 vs model helical decapeptide) turned out to be 5%. Besides, in the data set with airway SNAREs and Syt2, the “Ca2+ triggered fusion events” value came to 219 and the “Ca2+ independent fusion events” value came to 113. Besides, in the data set with airway SNAREs and Syt2 (up to 10 μM peptide), the “effect on Ca2+-triggered cumulative fusion probability” value was “no effect” and the “effect on intrinsic Ca2+-independent fusion probability” value is “no effect”.

For the molecule “Ac-SKD(S5)GIR(S5)LVMLDE(S5)GEQ(S5)DR-amide (Ac-SKD[S5]GIR[S5]LVMLDE[S5]GEQ[S5]DR-NH2; staple 15-19, 4-8; SMILES CC[C@H](C)[C@@H]1NC(=O)CNC(=O)[C@@](C)(NC(=O)[C@H](CC(=O)O)NC(=O)[C@H](CCCCN)NC(=O)[C@H](CO)NC(C)=O)CCCC=CCCC[C@@](C)(C(=O)N[C@@H](CC(C)C)C(=O)N[C@H](C(=O)N[C@@H](CCSC)C(=O)N[C@@H](CC(C)C)C(=O)N[C@@H](CC(=O)O)C(=O)N[C@@H](CCC(=O)O)C(=O)N[C@@]2(C)CCCC=CCCC[C@@](C)(C(=O)N[C@@H](CC(=O)O)C(=O)N[C@@H](CCCNC(=N)N)C(N)=O)NC(=O)[C@H](CCC(N)=O)NC(=O)[C@H](CCC(=O)O)NC(=O)CNC2=O)C(C)C)NC(=O)[C@H](CCCNC(=N)N)NC1=O) [SP1]”, in the data set on neuronal SNAREs and Syt1 [1], the “effect on ensemble lipid mixing” value is “substantially inhibited”. In the data set with neuronal SNAREs and Syt1 [2], the “Ca2+ triggered fusion events” value came to 210 and the “Ca2+ independent fusion events” value is on record as 235. Further, the “helical content, ranking in words” value in data set [3] was “largest helical content”. Further, in the data set with airway SNAREs and Syt2, the “Ca2+ triggered fusion events” value came to 275 and the “Ca2+ independent fusion events” value stood at 251.

For `CC[C@H](C)[C@H](NC(=O)[C@]1(C)CCCC=CCCC[C@](C)(NC(=O)[C@H](CCC(=O)O)NC(=O)[C@H](CCC(=O)O)NC(C)=O)C(=O)N[C@@H](CCCCN)C(=O)N[C@@H](CC(=O)O)C(=O)N[C@@H](C)C(=O)N1)C(=O)N[C@@H](CCCNC(=N)N)C(=O)N[C@@]1(C)CCCC=CCCC[C@@](C)(C(=O)N[C@@H](CC(=O)O)C(=O)N[C@@H](CCC(=O)O)C(=O)N[C@@H](CCC(N)=O)C(=O)N[C@@H](CS)C(N)=O)NC(=O)[C@H](CCSC)NC(=O)[C@H](C(C)C)NC(=O)[C@H](CC(C)C)NC1=O` [SP9, Ac-EE(S5)KDA(S5)IR(S5)LVM(S5)DEQC-amide] (Ac-EE[S5]KDA[S5]IR[S5]LVM[S5]DEQC-NH2; staple 3-7, 10-14), the “effect on ensemble lipid mixing” value with neuronal SNAREs and Syt1 [1] is “substantially inhibited”. The “Ca2+ triggered fusion events” value in the data set with neuronal SNAREs and Syt1 [2] was 272; on airway SNAREs and Syt2 it was 250. The “Ca2+ independent fusion events” value with neuronal SNAREs and Syt1 [2] was determined as 165; at airway SNAREs and Syt2 it was 274. Further, the “helical content, ranking in words” value in data set [3] is reported as “largest helical content; also recorded: highest α-helicity”.

On to “Ac-SKDA(S5)IRT(S5)VM(S5)DEQ(S5)EQL-amide (Ac-SKDA[S5]IRT[S5]VM[S5]DEQ[S5]EQL-NH2; staple 12-16, 5-9; SMILES CC[C@H](C)[C@@H]1NC(=O)[C@@](C)(NC(=O)[C@H](C)NC(=O)[C@H](CC(=O)O)NC(=O)[C@H](CCCCN)NC(=O)[C@H](CO)NC(C)=O)CCCC=CCCC[C@@](C)(C(=O)N[C@H](C(=O)N[C@@H](CCSC)C(=O)N[C@@]2(C)CCCC=CCCC[C@@](C)(C(=O)N[C@@H](CCC(=O)O)C(=O)N[C@@H](CCC(N)=O)C(=O)N[C@@H](CC(C)C)C(N)=O)NC(=O)[C@H](CCC(N)=O)NC(=O)[C@H](CCC(=O)O)NC(=O)[C@H](CC(=O)O)NC2=O)C(C)C)NC(=O)[C@H]([C@@H](C)O)NC(=O)[C@H](CCCNC(=N)N)NC1=O) [SP4]”, for which the “effect on ensemble lipid mixing” value with neuronal SNAREs and Syt1 [1] is “substantially inhibited”. Moreover, in the data set with neuronal SNAREs and Syt1 [2], the “Ca2+ triggered fusion events” value was 210 and the “Ca2+ independent fusion events” value worked out at 261. For the same molecule, in data set [3], the “helical content, ranking in words” value is recorded as “largest helical content”. Further, in the data set with airway SNAREs and Syt2, the “Ca2+ triggered fusion events” value came to 231 and the “Ca2+ independent fusion events” value came out at 237.

As to “Ac-SKD(S5)GIR(S5)LV(S5)LDE(S5)GEQL-amide (Ac-SKD[S5]GIR[S5]LV[S5]LDE[S5]GEQL-NH2; staple 11-15, 4-8; SMILES CC[C@H](C)[C@@H]1NC(=O)CNC(=O)[C@@](C)(NC(=O)[C@H](CC(=O)O)NC(=O)[C@H](CCCCN)NC(=O)[C@H](CO)NC(C)=O)CCCC=CCCC[C@@](C)(C(=O)N[C@@H](CC(C)C)C(=O)N[C@H](C(=O)N[C@@]2(C)CCCC=CCCC[C@@](C)(C(=O)NCC(=O)N[C@@H](CCC(=O)O)C(=O)N[C@@H](CCC(N)=O)C(=O)N[C@@H](CC(C)C)C(N)=O)NC(=O)[C@H](CCC(=O)O)NC(=O)[C@H](CC(=O)O)NC(=O)[C@H](CC(C)C)NC2=O)C(C)C)NC(=O)[C@H](CCCNC(=N)N)NC1=O) [SP10]”, the “effect on ensemble lipid mixing” value with neuronal SNAREs and Syt1 [1] is “substantially inhibited”. Further, in the data set with neuronal SNAREs and Syt1 [2], the “Ca2+ triggered fusion events” value is 495 and the “Ca2+ independent fusion events” value was determined as 263. Further, in data set [3], the “helical content, ranking in words” value is “largest helical content”. Moreover, in the data set with airway SNAREs and Syt2, the “Ca2+ triggered fusion events” value is recorded as 273 and the “Ca2+ independent fusion events” value was determined as 327.
